Measurements from ChEMBL document CHEMBL1149560, “Discovery of a potent CDK2 inhibitor with a novel binding mode, using virtual screening and initial, structure-guided lead scoping” (Bioorg Med Chem Lett, 2007).

Columns and labels:
HCT-116 = assay: Antiproliferative activity against HCT116 cells by SRB assay after 72 hrs; type: functional; settings: Homo sapiens, HCT-116, 72 h
[1] = biological target: Glycogen synthase kinase-3 beta (Homo sapiens, UniProt P49841); assay: Inhibition of GSK3-beta
Glycogen synthase kinase-3 beta, sequence (P49841 whole entry): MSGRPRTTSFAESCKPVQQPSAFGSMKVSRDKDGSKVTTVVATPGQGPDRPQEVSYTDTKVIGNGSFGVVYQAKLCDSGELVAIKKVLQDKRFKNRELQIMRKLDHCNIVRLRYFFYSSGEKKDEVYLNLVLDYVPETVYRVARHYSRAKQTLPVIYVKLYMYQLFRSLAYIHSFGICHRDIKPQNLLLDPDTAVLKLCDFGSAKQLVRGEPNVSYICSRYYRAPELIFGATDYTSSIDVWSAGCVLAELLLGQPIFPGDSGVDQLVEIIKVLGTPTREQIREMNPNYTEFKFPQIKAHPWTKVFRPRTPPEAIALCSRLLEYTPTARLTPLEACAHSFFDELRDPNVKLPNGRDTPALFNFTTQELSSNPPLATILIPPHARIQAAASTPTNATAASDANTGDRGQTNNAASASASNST

[2] = biological target: Cyclin-dependent kinase 2 (Homo sapiens, UniProt P24941); assay: Inhibition of CDK2
[3] = biological target: RAC-alpha serine/threonine-protein kinase (Homo sapiens) (UniProt P31749); assay: Inhibition of AKT at 10 uM
RAC-alpha serine/threonine-protein kinase (Homo sapiens), sequence (P31749 whole entry): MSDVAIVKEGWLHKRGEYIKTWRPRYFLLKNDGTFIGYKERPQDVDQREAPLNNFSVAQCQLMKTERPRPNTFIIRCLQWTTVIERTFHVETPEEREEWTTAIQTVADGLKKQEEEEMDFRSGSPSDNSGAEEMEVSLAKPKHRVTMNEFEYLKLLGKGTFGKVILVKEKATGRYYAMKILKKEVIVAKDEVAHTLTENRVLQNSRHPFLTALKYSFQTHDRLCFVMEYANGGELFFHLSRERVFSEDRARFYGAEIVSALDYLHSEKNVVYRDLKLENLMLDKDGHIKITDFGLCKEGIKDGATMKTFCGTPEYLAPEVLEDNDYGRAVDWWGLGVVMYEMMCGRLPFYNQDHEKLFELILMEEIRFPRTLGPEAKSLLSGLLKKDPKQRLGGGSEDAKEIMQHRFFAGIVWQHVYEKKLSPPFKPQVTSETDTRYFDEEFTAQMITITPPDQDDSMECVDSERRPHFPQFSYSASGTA

[4] = Inhibition of PKA; set-up: species or system Homo sapiens
[5] = biological target: T1, Serine/threonine-protein kinase Chk1 (Homo sapiens) (UniProt O14757); assay: Inhibition of Chk1 at 50 uM
T1 sequence (whole entry): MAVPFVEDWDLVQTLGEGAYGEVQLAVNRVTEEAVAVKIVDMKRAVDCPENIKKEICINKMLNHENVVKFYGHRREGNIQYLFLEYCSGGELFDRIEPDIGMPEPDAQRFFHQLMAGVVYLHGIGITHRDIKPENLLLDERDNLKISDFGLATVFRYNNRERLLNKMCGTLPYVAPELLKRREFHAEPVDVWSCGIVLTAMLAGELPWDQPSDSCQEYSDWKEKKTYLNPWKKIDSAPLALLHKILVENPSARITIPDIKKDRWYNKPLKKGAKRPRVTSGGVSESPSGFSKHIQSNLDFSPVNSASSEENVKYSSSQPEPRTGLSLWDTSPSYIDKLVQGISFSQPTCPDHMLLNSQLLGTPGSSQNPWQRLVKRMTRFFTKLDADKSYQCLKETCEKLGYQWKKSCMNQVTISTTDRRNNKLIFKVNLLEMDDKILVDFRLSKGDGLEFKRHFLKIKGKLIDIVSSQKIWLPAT

Row | GI50 (HCT-116) [µM] | IC50 [1] [nM] | IC50 [2] [µM] | inhibition [3] [%] | IC50 [4] [µM] | inhibition [5] [%] | Compound
1 | > 80 |  |  |  |  |  | NS(=O)(=O)c1ccc(-c2ccc(/C=C3\SC(=O)NC3=O)o2)cc1
2 | > 80 | 510 | 0.57 |  |  |  | CN(C)CCNS(=O)(=O)c1ccc(-c2ccc(/C=C3\SC(=N)NC3=O)o2)cc1
3 | > 80 |  | 19 |  |  |  | N=C1NC(=O)/C(=C/c2ccc(-c3ccccc3[N+](=O)[O-])o2)S1
4 | > 80 | 2 |  |  |  |  | N=C1NC(=O)/C(=C/c2ccc(-c3ccc(S(N)(=O)=O)c(C(F)(F)F)c3)o2)S1
5 | > 80 | 250 |  | 54 | 77 | 44 | N=C1NC(=O)/C(=C/c2ccc(-c3ccc(S(N)(=O)=O)cc3)o2)S1
6 | > 80 |  | 9.3 |  |  |  | N=C1NC(=O)/C(=C/c2ccc(-c3ccc(C(N)=O)cc3)o2)S1
7 | > 80 | 430 |  |  |  |  | C/C(=C1/SC(=N)NC1=O)c1ccc(-c2ccc(S(N)(=O)=O)cc2)o1
8 | > 80 | 80 |  |  |  |  | CNS(=O)(=O)c1ccc(-c2ccc(/C=C3\SC(=N)NC3=O)o2)cc1
9 | > 80 |  |  |  |  |  | N=C1NC(=O)/C(=C/c2ccc(-c3ccc(C(=O)O)cc3)o2)S1
10 | > 80 | 14 | 0.57 |  |  |  | N=C1NC(=O)/C(=C/c2ccc(-c3ccc(S(N)(=O)=O)c(Cl)c3)o2)S1
11 |  |  | 150 |  |  |  | N=C1NC(=O)/C(=C/c2ccc(-c3ccc(S(=O)(=O)N4CCOCC4)cc3)o2)S1
12 | > 80 |  | 2.9 |  |  |  | N=C1NC(=O)/C(=C/c2ccc(-c3ccc(S(=O)(=O)N4CCNCC4)cc3)o2)S1
